We go through 44 compounds from patent US20120059162A1, “FUSED IMIDAZOLE DERIVATIVE HAVING TTK INHIBITORY ACTION” (Oncotherapy Science, Inc., priority 2009, published 2012).

One test addresses T1, TTK (Homo sapiens, UniProt P33981).
T1 sequence (P33981 1-857): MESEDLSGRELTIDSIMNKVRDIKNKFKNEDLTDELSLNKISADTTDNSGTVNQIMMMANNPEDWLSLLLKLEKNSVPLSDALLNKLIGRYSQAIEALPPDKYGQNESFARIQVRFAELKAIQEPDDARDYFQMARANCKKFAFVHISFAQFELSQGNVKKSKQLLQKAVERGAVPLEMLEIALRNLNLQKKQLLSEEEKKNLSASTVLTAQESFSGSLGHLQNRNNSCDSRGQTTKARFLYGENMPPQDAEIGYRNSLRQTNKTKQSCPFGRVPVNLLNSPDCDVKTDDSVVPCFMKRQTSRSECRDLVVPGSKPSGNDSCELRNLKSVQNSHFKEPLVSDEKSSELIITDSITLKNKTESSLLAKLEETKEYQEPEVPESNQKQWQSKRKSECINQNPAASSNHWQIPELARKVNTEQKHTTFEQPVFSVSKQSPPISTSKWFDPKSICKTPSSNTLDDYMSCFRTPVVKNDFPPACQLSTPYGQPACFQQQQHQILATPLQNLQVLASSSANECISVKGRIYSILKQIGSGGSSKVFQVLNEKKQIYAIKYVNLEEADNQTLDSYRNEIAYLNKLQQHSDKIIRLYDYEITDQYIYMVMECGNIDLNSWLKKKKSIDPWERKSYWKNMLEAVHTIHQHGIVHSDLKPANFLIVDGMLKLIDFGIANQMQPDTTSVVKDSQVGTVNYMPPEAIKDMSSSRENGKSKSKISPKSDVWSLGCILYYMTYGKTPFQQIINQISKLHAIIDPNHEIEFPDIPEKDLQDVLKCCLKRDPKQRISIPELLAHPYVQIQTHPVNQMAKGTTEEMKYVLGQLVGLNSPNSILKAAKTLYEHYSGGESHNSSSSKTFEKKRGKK
Put plainly: TTK assay: screening of TTK kinase activity suppressing action using p38 MAPK peptide. The format is biochemical. The settings on record: p38 MAPK peptide substrate; read-out: TTK IC50. A digest of the protocol: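 TTK (4 μg/ml in enzyme solution) mixed with p38 MAPK peptide and ATP (each 60 μM in substrate solution) in Tris-HCl pH 7.5 with MgCl2, DTT, Na3VO4, β-glycerophosphate, BSA. Reaction aliquot captured on NeutrAvidin plate, detected with Eu-labelled anti-mouse IgG by time-resolved fluorescence; inhibition relative to no-compound signal.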

Another test deals with A549. Put plainly: A549 assay: screening of cancer cell growth inhibiting compound. The format is cell-based. The settings on record: Homo sapiens, 72 h; A549 cells, three days, WST-8; read-out: A549 IC50. A digest of the protocol: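 A549 cells (1×10^4/ml) in D-MEM with 10% FBS were pre-incubated one day at 37 °C, then exposed to compound dilutions for three further days. Viable cell number read by WST-8 (1–4 hours), absorbance 450 nm (reference 620 nm); inhibition calculated relative to untreated wells.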

As to `Cc1ccc(Oc2cc(NCC3CCOCC3)c3ncc(-c4ccc(C(=O)NC5CC5)cc4)n3n2)cc1` [Example 2-103], the IC50 at TTK was 4.4 nM; with A549 it was 50 to 500 nM.

With `O=C(NC1CC1)c1ccc(-c2cnc3c(NCC4CCOCC4)cc(Oc4cccc(F)c4)nn23)cc1` [Example 2-106], the IC50 at TTK is 6.4 nM; with A549, not above 50 nM.

As to `Cc1cccc(C)c1Oc1cc(NCC2CCOCC2)c2ncc(-c3ccc(C(=O)NC4CC4)cc3)n2n1` [Example 2-107], the IC50 is 34.4 nM on TTK and 50 to 500 nM in the test with A549.

Turning to `COc1cccc(Oc2cc(NCC3CCOCC3)c3ncc(-c4ccc(C(=O)NC5CC5)cc4)n3n2)c1` [Example 2-109], the IC50 is 3.3 nM on TTK and 50 to 500 nM with A549.

For `O=C(NC1CC1)c1ccc(-c2cnc3c(NCC4CCOCC4)cc(Oc4cccc(O)c4)nn23)cc1` [Example 2-110], the IC50 on TTK was 2.9 nM; in the test on A549, 50 to 500 nM.

Regarding `O=C(NC1CC1)c1ccc(-c2cnc3c(NCC4CCOCC4)cc(Oc4cccc(C(F)(F)F)c4)nn23)cc1` [Example 2-111], the values for the concentration for half-maximal inhibition (IC50) at TTK and in the test on A549 were 3.8 nM and 50 to 500 nM, respectively.

On to `COc1ccc(Oc2cc(NCC3CCOCC3)c3ncc(-c4ccc(C(=O)NC5CC5)cc4)n3n2)c(F)c1` [Example 2-112], for which the IC50 was 2.7 nM at TTK and not above 50 nM in the test on A549.

Consider `O=C(NC1CC1)c1ccc(-c2cnc3c(NCC4CCOCC4)cc(Oc4cccc(Cl)c4)nn23)cc1` [Example 2-114], for which the IC50 at TTK was 2.5 nM; in the test with A549, 50 to 500 nM.

On to `O=C(NC1CC1)c1ccc(-c2cnc3c(NCC4CCOCC4)cc(Oc4cccc(F)c4O)nn23)cc1` [Example 2-117], for which the results for the IC50 on TTK and with A549 were 2.9 nM and not above 50 nM, respectively.

With `O=C(NC1CC1)c1ccc(-c2cnc3c(NCC4CCOCC4)cc(Oc4cc(F)ccc4O)nn23)cc1` [Example 2-118], the IC50 at TTK was 2.2 nM; in the test on A549, not above 50 nM.

As to `O=C(NC1CC1)c1ccc(-c2cnc3c(NCC4CCCCC4)cc(NC4CCCCC4)nn23)cc1` [Example 2-125], the IC50 was 8.6 nM on TTK and 50 to 500 nM in the test on A549.

Take `CN1CCC(CNc2cc(NC3CCCCC3)nn3c(-c4ccc(C(=O)NC5CC5)cc4)cnc23)CC1` [Example 2-126]: the figures for the IC50 at TTK and in the test on A549 were 23.6 nM and 50 to 500 nM, respectively.

`CC(=O)N1CCC(CNc2cc(NC3CCCCC3)nn3c(-c4ccc(C(=O)NC5CC5)cc4)cnc23)CC1` [Example 2-127]: the figures for the half-inhibitory concentration (IC50) at TTK and with A549 were 5 nM and 50 to 500 nM, respectively.

On to `O=C(NC1CC1)c1ccc(-c2cnc3c(NCC4CCC4)cc(NC4CCCCC4)nn23)cc1` [Example 2-128], for which the figures for the IC50 on TTK and with A549 were 7.4 nM and 50 to 500 nM, respectively.

Turning to `O=C(NC1CC1)c1ccc(-c2cnc3c(NCC4CCCC4)cc(NC4CCCCC4)nn23)cc1` [Example 2-129], the half-inhibitory concentration (IC50) at TTK was 6.7 nM; with A549 it was 50 to 500 nM.

For the compound `O=C(NC1CC1)c1ccc(-c2cnc3c(NCCCCO)cc(NC4CCCCC4)nn23)cc1` [Example 2-130], the IC50 on TTK was 9.7 nM; in the test on A549 it was 50 to 500 nM.

Turning to `O=C(NC1CC1)c1ccc(-c2cnc3c(NCC4CCSCC4)cc(NC4CCCCC4)nn23)cc1` [Example 2-131], the IC50 on TTK is 5.5 nM; in the test with A549, 50 to 500 nM.

Turning to `O=C(NC1CC1)c1ccc(-c2cnc3c(NCC4CC4)cc(NC4CCCCC4)nn23)cc1` [Example 2-132], the values for the IC50 at TTK and in the test on A549 were 6.8 nM and 50 to 500 nM, respectively.

Consider `CCC(CC)CNc1cc(NC2CCCCC2)nn2c(-c3ccc(C(=O)NC4CC4)cc3)cnc12` [Example 2-133], for which the IC50 on TTK was 6.8 nM; in the test on A549, 50 to 500 nM.

Consider `O=C(NC1CC1)c1ccc(-c2cnc3c(NCc4ccc(F)cc4)cc(NC4CCCCC4)nn23)cc1` [Example 2-134], for which the figures for the IC50 on TTK and in the test on A549 were 6.6 nM and 50 to 500 nM, respectively.

For the compound `CC(C)(C)CNc1cc(NC2CCCCC2)nn2c(-c3ccc(C(=O)NC4CC4)cc3)cnc12` [Example 2-135], the results for the IC50 at TTK and in the test with A549 were 9.6 nM and 50 to 500 nM, respectively.

As for `O=C(NC1CC1)c1ccc(-c2cnc3c(NCCSCCO)cc(NC4CCCCC4)nn23)cc1` [Example 2-136], the IC50 is 7.3 nM at TTK and 50 to 500 nM with A549.

Regarding `CCC(C)CNc1cc(NC2CCCCC2)nn2c(-c3ccc(C(=O)NC4CC4)cc3)cnc12` (stereo not shown) [Example 2-137], the figures for the IC50 at TTK and in the test with A549 were 7.3 nM and 50 to 500 nM, respectively.

Turning to `COCCCCNc1cc(NC2CCCCC2)nn2c(-c3ccc(C(=O)NC4CC4)cc3)cnc12` [Example 2-138], the IC50 at TTK is 5.5 nM; in the test on A549 it was 50 to 500 nM.

With `CC(C)CCNc1cc(NC2CCCCC2)nn2c(-c3ccc(C(=O)NC4CC4)cc3)cnc12` [Example 2-139], the IC50 was 10.5 nM at TTK and 50 to 500 nM with A549.

With `CCCNc1cc(NC2CCCCC2)nn2c(-c3ccc(C(=O)NC4CC4)cc3)cnc12` [Example 2-141], the figures for the IC50 at TTK and in the test with A549 were 7 nM and 50 to 500 nM, respectively.

For the compound `CCC(C)Nc1cc(NC2CCCCC2)nn2c(-c3ccc(C(=O)NC4CC4)cc3)cnc12` (stereo not shown) [Example 2-143], the IC50 on TTK was 19.8 nM; in the test on A549 it was 500 to 1000 nM.

In the case of `O=C(NC1CC1)c1ccc(-c2cnc3c(NCC(F)F)cc(NC4CCCCC4)nn23)cc1` [Example 2-144], the values for the 50% inhibitory concentration (IC50) at TTK and in the test with A549 were 3.5 nM and 50 to 500 nM, respectively.

For `O=C(NC1CC1)c1ccc(-c2cnc3c(NCC(F)(F)F)cc(NC4CCCCC4)nn23)cc1` [Example 2-145], the half-maximal inhibitory concentration (IC50) was 3 nM at TTK and 50 to 500 nM in the test on A549.

As to `O=C(NC1CC1)c1ccc(-c2cnc3c(NCC4CCS(=O)(=O)CC4)cc(NC4CCCCC4)nn23)cc1` [Example 2-146], the IC50 at TTK is 3.8 nM; in the test with A549, 500 to 1000 nM.

As for `O=C(NC1CC1)c1ccc(-c2cnc3c(NCc4cncs4)cc(NC4CCCCC4)nn23)cc1` [Example 2-147], the results for the concentration for half-maximal inhibition (IC50) on TTK and in the test with A549 were 2.9 nM and 50 to 500 nM, respectively.

Turning to `Cn1cncc1CNc1cc(NC2CCCCC2)nn2c(-c3ccc(C(=O)NC4CC4)cc3)cnc12` [Example 2-148], the figures for the IC50 on TTK and in the test on A549 were 3.9 nM and 500 to 1000 nM, respectively.

Turning to `Cn1cnc(CNc2cc(NC3CCCCC3)nn3c(-c4ccc(C(=O)NC5CC5)cc4)cnc23)c1` [Example 2-149], the IC50 at TTK is 5.4 nM; in the test on A549, 50 to 500 nM.

Take `Cn1cc(CNc2cc(NC3CCCCC3)nn3c(-c4ccc(C(=O)NC5CC5)cc4)cnc23)cn1` [Example 2-150]: the IC50 on TTK is 3.8 nM; in the test on A549, 50 to 500 nM.

In the case of `O=C(NC1CC1)c1ccc(-c2cnc3c(NCc4cccs4)cc(NC4CCCCC4)nn23)cc1` [Example 2-151], the IC50 on TTK was 3.1 nM; in the test with A549, 50 to 500 nM.

For the compound `O=C(NC1CC1)c1ccc(-c2cnc3c(NCc4ccco4)cc(NC4CCCCC4)nn23)cc1` [Example 2-152], the values for the IC50 at TTK and with A549 were 3.6 nM and 50 to 500 nM, respectively.

For the compound `O=C(NC1CC1)c1ccc(-c2cnc3c(NCC45CCN(CC4)CC5)cc(NC4CCCCC4)nn23)cc1` [Example 2-153], the IC50 at TTK is 7.5 nM; in the test on A549 it was 50 to 500 nM.

On to `O=C(NC1CC1)c1ccc(-c2cnc3c(NCc4ccccn4)cc(NC4CCCCC4)nn23)cc1` [Example 2-154], for which the results for the IC50 on TTK and in the test on A549 were 5 nM and 50 to 500 nM, respectively.

As to `O=C(NC1CC1)c1ccc(-c2cnc3c(NCc4ccncc4)cc(NC4CCCCC4)nn23)cc1` [Example 2-155], the IC50 at TTK is 4.1 nM; with A549, 50 to 500 nM.

On to `O=C(NC1CC1)c1ccc(-c2cnc3c(NCc4cccnc4)cc(NC4CCCCC4)nn23)cc1` [Example 2-156], for which the IC50 was 4.4 nM at TTK and 50 to 500 nM in the test with A549.

For `O=C(NC1CC1)c1ccc(-c2cnc3c(NCc4ccoc4)cc(NC4CCCCC4)nn23)cc1` [Example 2-157], the concentration for half-maximal inhibition (IC50) at TTK is 3.4 nM; in the test on A549, 50 to 500 nM.

As for `Cc1cc(CNc2cc(NC3CCCCC3)nn3c(-c4ccc(C(=O)NC5CC5)cc4)cnc23)no1` [Example 2-158], the results for the IC50 at TTK and with A549 were 3.2 nM and 50 to 500 nM, respectively.

As to `Cn1ccc(CNc2cc(NC3CCCCC3)nn3c(-c4ccc(C(=O)NC5CC5)cc4)cnc23)n1` [Example 2-159], the IC50 at TTK was 26.1 nM; in the test with A549, 50 to 500 nM.

`O=C(NC1CC1)c1ccc(-c2cnc3c(NCc4nccs4)cc(NC4CCCCC4)nn23)cc1` [Example 2-160]: the IC50 on TTK was 3.1 nM; with A549, 50 to 500 nM.
